Assay results: patent US5532227A, “Tetracyclines including non-antimicrobial chemically-modified tetracyclines inhibit excessive glycosylation of different types of collagen and other proteins during diabetes” (The Research Foundation of State University of New York, priority 1994, dated 1996)
Where two headings read alike, the source gives them in different places.

Columns and labels:
[1] = system: streptozotocin-diabetic rats; assay: Proteinuria: urine protein excretion in diabetic rats (Example III, FIG. 4); format: in vivo, rat; details: recent experiments, data not shown; Golub et al. 1992 cited
Description: Example III was carried out to determine the effect of tetracycline therapy on proteinuria, a parameter of renal damage, in diabetic rats.
(§1) Streptozotocin-diabetic rats were treated by the daily oral administration of 20 mg minocycline/rat/day over a 4-week period. At the end of the protocol, 24-hour urines were collected to measure protein excretion.

[2] = system: streptozotocin-diabetic rats; assay: Other signs of diabetes (hyperglycemia, glucosuria, polyuria) in diabetic rats (Example III); format: in vivo, rat
Description: as §1

skin collagen [3] = assay: Glycosylation of diabetic rat skin collagen (Example V, Table IV); format: in vivo, Sprague-Dawley rat; details: 5 mg daily oral gavage, 21 days
Description: All animals were weighed weekly.
The subcutaneous muscle layer was removed leaving essentially the dermis. The dermis (skin connective tissue) samples were minced, then homogenized in phosphate buffered saline (4° C.). Following centrifugation (at 9000 rpm, 4° C., 30 min.) of the homogenates, the supernatants were discarded. The pellets were repeatedly washed, then resuspended and extracted at 4° C. overnight in chloroform/methanol to remove lipids. The de-lipidized tissue samples were then washed in 100% methanol, then in 50% methanol. Following the methanol washes, the samples were washed with HEPES buffer (pH 7.4). The skin connective tissue samples (100 mg of each sample) were incubated at 37° C. (24 hours) with chromatographically-purified bacterial collagenase. After 24 hours the reaction mixture was centrifuged at 7000 rpm, room temperature for 30 minutes. Following centrifugation, the supernatants containing the digested collagen were collected. Aliquots of the supernatants were analyzed for glycosylated collagen using a modification of the Isolab Glyco-PROBE™ GSP assay kit. The assay is designed to measure glucose bound to protein which was then converted by Amadori rearrangement to fructosamine. For purposes of the present invention, the sample total protein was increased to compensate for low levels of glycosylated collagen compared to glycosylated serum proteins.

[4] = system: streptozotocin-diabetic rats; assay: Blood glucose concentration of CMT-1-treated diabetic rats (Example I, FIG. 1); format: in vivo, Sprague-Dawley rat; details: oral gavage, 1-10 mg/day, 21 days
Description: Each value represents the mean ± S.E.M. for 4 rats per experimental group.
(§2) Twenty-four adult male Sprague-Dawley rats were weighed (body weight between 350-375 g) and injected through the tail vein with either 0.9% saline (nondiabetic controls, NDC) or with the same solution containing streptozotocin ([…] body weight) to induce diabetes. The diabetic rats were distributed into five experimental groups (n=4 rats per group) and daily administered by oral gavage either 0, 1, 2, 5 or 10 mg of CMT-1 (4-dedimethylaminotetracycline, a chemically-modified non-antimicrobial tetracycline) suspended in 2% carboxymethylcellulose (CMC) for 21 days. The non-diabetic control rats were gavaged with the carrier alone (2% CMC). Urine glucose levels were measured weekly with Tes-Tape (Eli Lily, Inc., Indianapolis, Ind.).
On the 21st day, the rats were weighed and anesthetized with halothane (Halocarbon Laboratories) before blood samples were collected for serum glucose (Sigma glucose oxidase kit, St. Louis, Mo.) and CMT-1 determinations. […]
(§3) The data were subject to statistical analysis. The standard error of the mean (S.E.M) was calculated from the standard deviation. The statistical significance between the groups were determined by analysis of variance while the significance of differences between groups was calculated by Tukey's test.

[5] = format: in vivo, Sprague-Dawley rat; details: for Serum CMT-1 Conc.: 21 days, mean of 4 rats ± S.E.M.; for serum concentration for individual rats: individual rats (data not shown), 30240 min
Description: as §2
On the 21st day, the rats were weighed and anesthetized with halothane (Halocarbon Laboratories) before blood samples were collected for serum glucose (Sigma glucose oxidase kit, St. Louis, Mo.) and CMT-1 determinations. The rats were then killed by exsanguination and the skin from the entire torso was dissected, weighed, and minced as described by Schneir et al., Diabetes 31:426 (1982).
The extraction and HPLC determination of the concentration of CMT-1 in rat serum was carried out as described by Yu et al., Biochem. Med. & Metabolic Biol. 47:10-20 (1992).
Serum CMT-1 concentration was assayed using the HPLC technique described by Yu et al., BioChem. Med. & Metabolic Biol. 47: 10-20 (1992). […].

skin collagen [6] = assay: Glycosylation of skin collagen in diabetic rats, anthrone method (Example IV, FIG. 6); format: in vivo, Sprague-Dawley rat; details: 5 mg daily oral gavage, 21 days; effect p<0.05
Description: (§4) Sixteen adult male sprague-Dawley rats, each weighing approximately 350 grams, were divided into four groups 0f four animals per group.
In addition, the entire skin was dissected from each rat. Samples containing 100mg of each skin were suspended in a Tris-HCl buffer containing 5mM CaCl2 and chromatographically-purified bacterial collagenase and incubated at 37° C. for 4 hours. Following incubation all samples were centrifugated at 35,000×G and the supernatants containing the skin collagen fragments were collected. The skin digest supernatants were analyzed for (1) carbohydrate-attached-to-collagen by the anthrone method, as described by Halhoul and Kleinberg ([…]) Anal. Biochem. 50: 337-343 and (2) total protein using the BioRad Assay, BioRad Chemical Division, Richmond, Calif.

serum protein = assay: Glycosylated serum proteins in diabetic rats (Example IV, FIG. 5); format: in vivo, Sprague-Dawley rat; details: 5 mg daily oral gavage, 21 days; effect p<0.05
Description: (Control vs. Diabetic p<0.01, Diabetic vs. Diabetic treated with Doxycycline p<0.05, Diabetic vs. Diabetic treated with CMT-1 (4-dedimethyiaminotetracycline) p<0.05).
as §4

skin collagen [7] = assay: Solubility of skin collagen in neutral salt and dilute acid, CMT-1 (Example I, FIGS. 2 and 3); format: in vivo, Sprague-Dawley rat; details: for increase of collagen solubility in neutral salt solutions / increase of collagen solubility in dilute acid solutions: vs untreated diabetics, 4° C.
Description: as §2
Skin samples were examined for collagen solubility using the techniques described previously (Golub et al., J. Periodont. Res. 12:402 (1977), Golub et al., Biochim. Biophys. Acta 534:73 (1978)) with some modifications. Except where indicated, all steps were carried out at 4° C.
Briefly, for the preparation of neutral salt-soluble collagen, minced rat skin was extracted with Tris-HCl buffer (pH 7.4) for 2 days followed by centrifugation at 11,000×g for 20 min. The pellet was subjected to an additional extraction for 18 hr and centrifuged as described above. Both supernatants were then combined and dialyzed exhaustively against 3% acetic acid for 2 days.
For the preparation of acid-soluble collagen, the pellet was further extracted with 3% acetic acid as described for the neutral salt extraction. The neutral salt and dilute acid extracts were dried with a rotatory evaporator at 60° C. under vacuum.
Following acid hydrolysis, the dried samples from the two extractions were used for neutral salt- and acid-soluble collagen determinations, while the pellet was used to determine the amount of insoluble collagen.
The amount of collagen in the three different skin fractions was also estimated. In particular, aliquots of the hydrolysates were repeatedly evaporated and reconstituted with distilled water to remove the hydrochloric acid. After removal of hydrochloric acid, the aliquots Were colorimetrically analyzed for hydroxyproline, an amino acid "marker" of collagen.
as §3

In the case of CC1(O)c2cccc(O)c2C(=O)C2=C(O)C3(O)C(=O)C(C(N)=O)=C(O)CC3CC21 (stereo not drawn) [CMT-1, 4-dedimethylaminotetracycline], the “proteinuria in diabetic rats” value [1] is reported as “a reduction in proteinuria”, the “other signs of diabetes including hyperglycemia, glucosuria and polyuria” value [2] is reported as “Neither treatment with minocycline nor CMT-1 reduced the other signs of diabetes” and the “mM Fructosamine/mg protein (Mean ± SE)” value (skin collagen [3]; NDC 0.027, untreated diabetic 0.377) is reported as 0.123 ± 0.011 mM Fructosamine/mg protein. The “Reduction of glycosylation in treated diabetics (%)” value (skin collagen [3]; vs untreated diabetic control) was 67.4%, the “severity of hyperglycemia (blood glucose concentration)” value [4] was “did not significantly alter the severity of hyperglycemia” and the “Serum CMT-1 Conc.” value ([5]; 1 mg CMT/day oral) was 0.75 ± 0.04 µg/mL. The “serum concentration for individual rats” value ([5]; 1 mg oral dose) was 600 ng/mL, the “Serum CMT-1 Conc.” value ([5]; 2 mg CMT/day oral) was 1.75 ± 0.05 µg/mL and the “Serum CMT-1 Conc.” value ([5]; 5 mg CMT/day oral) was 3.90 ± 0.16 µg/mL. For the same compound, the “Serum CMT-1 Conc.” value ([5]; 10 mg CMT/day oral) was 5.80 ± 0.25 µg/mL, the “serum concentration for individual rats” value ([5]; 10 mg oral dose) was 6500 ng/mL and the “glycosylation of skin collagen” value (skin collagen [6]) was “returned both of these parameters of abnormal glycosylation to essentially normal levels”. The “fructosamine attached to serum protein (glycosylated serum protein)” value (serum protein) was “returned both of these parameters of abnormal glycosylation to essentially normal levels”, the “increase of collagen solubility in neutral salt solutions” value (skin collagen [7]; 1 mg CMT/day oral) was 10% and the “increase of collagen solubility in dilute acid solutions” value (skin collagen [7]; 1 mg/day oral) was 18%. The “increase of collagen solubility in dilute acid solutions” value (skin collagen [7]; 10 mg/day oral) was 174%, the “increase of collagen solubility in neutral salt solutions” value (skin collagen [7]; 10 mg/day oral) was 91% and the “quality of collagen in the skin (inhibition of excess crosslinking)” value (skin collagen [7]; diabetic rats, oral) was “normalized”.
